Data: patent US20060088843A1 (priority 2004, published 2006)

Experiments:
[1] = pI and pH of protein solutions; assay type: physicochemical
[2] = Antiviral activity in similar assays (not specified)
[3] = test system: herpesvirus; settings: cited from earlier work
[4] = test system: Semliki Forest virus; settings: cited from earlier work
[5] = test system: mice; assay: Toxicity assay in mice
[6] = test system: NAChR; assay type: binding

alpha-cobratoxin [native alpha-cobratoxin]
pH of solution [1]: 10.4
pI [1]: 9.6
antiviral activity [2]: does not demonstrate antiviral activity
antiviral activity against herpes [3]: does not have any antiviral activity
antiviral activity against Semliki Forest virus [4]: does not have any antiviral activity
LD50 in mice ([5]; injected subcutaneously or intra-peritoneally): 1.2 µg
time to death ([5]; injection of 1.5 mcg, 25 g mouse): ≤ 25 min

autoclaved alpha-cobratoxin
binding to native receptor [6]: still capable of binding to its native receptor
antiviral activity against herpes [3]: no antiviral activity
antiviral activity against Semliki Forest virus [4]: no antiviral activity
